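96-well plates; 48 h exposure; 5 concentrations. Endpoints by linear interpolation between flanking doses. Not reached: highest tested concentration assigned. GI50 marks 50% less growth. TGI marks complete inhibition of growth.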 Where a SMILES comes first, the peptide text is derived from it. The star is where a group is joined. Boc = CC(C)(C)OC(=O)*; OBn = c1ccc(CO*)cc1
Columns and labels:
Assay in all cases: NCI tumour cell line growth inhibition, 48 h
[1] = tested on: OVCAR-8 ovarian
[2] = tested on: COLO 205 colon
[3] = tested on: OVCAR-4 ovarian
[4] = tested on: HS 578T breast
[5] = tested on: PC-3 prostate
[6] = tested on: SNB-75 CNS
[7] = tested on: SF-295 CNS
[8] = tested on: MDA-MB-231 breast
[9] = tested on: CAKI-1 renal

Compound	TGI [1] [µM]	TGI [2] [µM]	TGI [3] [µM]	TGI [4] [µM]	TGI [5] [µM]	TGI [6] [µM]	TGI [7] [µM]	TGI [8] [µM]	TGI [9] [µM]	GI50 [1] [µM]	GI50 [2] [µM]	GI50 [3] [µM]	GI50 [4] [µM]	GI50 [5] [µM]	GI50 [6] [µM]	GI50 [7] [µM]	GI50 [8] [µM]	GI50 [9] [µM]
CC(C)(C)OC[C@H](O)CC#N	> 100	> 100	> 100	> 100	> 100	> 100	> 100	> 100	> 100	–	–	–	–	–	–	–	–	–
Cc1ccc(S(=O)(=O)c2c(O)c3ccccc3n(C)c2=O)cc1	> 100	> 100	> 100	> 100	> 100	> 100	> 100	> 100	> 100	–	–	–	–	–	–	–	–	–
CSc1cc(N)ccc1N=Nc1ccc(S(N)(=O)=O)cc1	53.6	71.3	> 100	73.9	> 100	59.8	56.6	57.9	> 100	–	–	–	–	–	–	–	–	–
COc1ccc(C(=O)N2c3ccccc3Sc3ccccc32)c(C(F)(F)F)c1	> 100	1.48	> 100	> 100	> 100	> 100	> 100	92.2	> 100	0.593	0.319	1.98	0.472	0.426	0.264	0.372	1.16	0.692
COC(=O)[C@@]12CCCC(=O)[C@@H]1[C@H]1CCCC[C@H]12	> 100	> 100	> 100	–	> 100	> 100	> 100	> 100	> 100	–	–	–	–	–	–	–	–	–
O=C(N[C@H]1c2ccsc2/C(=N/O)[C@H]1O)C(F)(F)F	> 100	> 100	–	> 100	> 100	> 100	> 100	–	> 100	–	–	–	–	–	–	–	–	–
O=C1/C(=C2\Sc3c(ccc(Cl)c3Cl)C2=O)Sc2c1ccc(Cl)c2Cl	> 100	> 100	> 100	> 100	> 100	> 100	> 100	> 100	> 100	–	–	–	–	–	–	–	–	–
COc1ccc2c(c1)/c(=C/c1ccc(N(C)C)cc1)c1cc(-c3ccccc3)[n+](C)n12	0.44	–	2.83	0.44	1.09	0.327	–	1.08	5.64	–	–	–	–	–	–	–	–	–
CN(Cc1cnc2nc(N)nc(N)c2n1)c1ccc(C(=O)NC(CCC(=O)NC(P(=O)(O)O)P(=O)(O)O)C(=O)O)cc1 (stereo unspecified)	> 100	> 100	> 100	> 100	> 100	> 100	> 100	> 100	29.8	–	–	–	–	–	–	–	–	–
O=C1C(Br)=C(c2ccccc2)S(=O)c2ccccc21 (stereo unspecified)	31.3	3.95	5.86	80.6	21.2	31.1	34.6	29.2	21.8	–	–	–	–	–	–	–	–	–
CC1(Cl)CC2C(CC1Sc1nnnn1-c1ccccc1)C2(C)C (stereo unspecified)	> 100	> 100	> 100	–	–	–	> 100	–	–	–	–	–	–	–	–	–	–	–
c1ccc2c(Cc3nnc4sc(SSc5nn6c(Cc7c[nH]c8ccccc78)nnc6s5)nn34)c[nH]c2c1	73.1	50.9	> 100	56.8	> 100	> 100	44.1	–	62.6	–	–	–	–	–	–	–	–	–
Cc1ccc(-c2n[nH]c(=O)[nH]2)cc1[N+](=O)[O-]	> 100	> 100	> 100	> 100	> 100	> 100	> 100	–	> 100	–	–	–	–	–	–	–	–	–
CC1(C)Oc2ccc(NC(=O)CCC(N)C(=O)O)cc2O1 (stereo unspecified)	> 100	> 100	> 100	> 100	> 100	> 100	> 100	> 100	> 100	–	–	–	–	–	–	–	–	–
CC(C)(C)OC(=O)NC(Cc1ccccc1)C(=O)NC(Cc1ccccc1)C(=O)NCC(=O)OCc1ccccc1 (stereo not drawn) (Boc-Phe-Phe-Gly-OBn; configuration not given here)	> 100	> 100	> 100	–	35.8	59	–	–	> 100	–	–	–	–	–	–	–	–	–
C[C@]12CC[C@H](O)CC1=CC[C@@H]1[C@@H]2CC[C@]2(C)/C(=N/OCCN3CCCC3)CC[C@@H]12	30.7	30.1	36	83.8	39.4	45	40.6	36.9	40.7	–	–	–	–	–	–	–	–	–
CCOc1cc(C2CC(c3ccc(NS(=O)(=O)c4cc([N+](=O)[O-])ccc4C)cc3)=NN2)ccc1O (stereo unspecified)	> 100	43	71.4	> 100	> 100	84	–	89.2	> 100	–	–	–	–	–	–	–	–	–
C[n+]1c2ccccc2c(C(=O)Nc2ccc(S(=O)(=O)N=C(N)N)cc2)c2ccccc21	> 100	> 100	> 100	> 100	> 100	> 100	> 100	76.5	> 100	–	–	–	–	–	–	–	–	–
COc1cccc(-c2cc(=O)c3ccc(C)nc3[nH]2)c1	> 100	0.247	> 100	> 100	> 42	0.0496	> 100	> 100	> 81.8	–	–	–	–	–	–	–	–	–
COc1ccc(OC)c2c1C1CCC(=O)N1CN2C(C)=O (stereo unspecified)	> 100	> 100	> 100	> 100	> 100	> 100	> 100	> 100	> 100	–	–	–	–	–	–	–	–	–
Cc1c(NC2(C)C(=O)N(/N=C/c3ccccc3)N=C2c2ccccc2)n[nH]c1-c1ccccc1 (stereo unspecified)	> 100	> 100	> 100	> 100	> 100	> 100	> 100	> 100	> 100	–	–	–	–	–	–	–	–	–
C/C(O)=C/c1nc2ccc([N+](=O)[O-])cc2nc1/C=C(/C)O	> 100	> 100	> 100	85.3	> 100	> 100	> 100	> 100	> 100	–	–	–	–	–	–	–	–	–
